Source: article PMC6508677, “Identification of druggable small molecule antagonists of the Plasmodium falciparum hexose transporter PfHT and assessment of ligand access to the glucose permeation pathway via FLAG-mediated protein engineering” (PLoS ONE, 2019)
Where “and” joins values, the source holds several entries; their conditions need not be identical. Identical values can stand only once. Like-named read-outs stand apart in the source and are kept apart here.

Experiments:
[1] = test system: P. falciparum strain 3D7 freed parasites; assay: 2-DG uptake by isolated freed P. falciparum parasites; format: cell-based, Plasmodium falciparum
Description: (§1) Glucose uptake by P. falciparum was performed essentially as described. P. falciparum strain 3D7 was cultured in 100 mm tissue culture dishes (Techno Plastic Products) in a 2% suspension of human erythrocytes and RPMI 1640 medium until reaching > 7.5% parasitemia. Cells were pelleted via centrifugation and resuspended in RPMI 1640 medium. To determine the uptake of radiolabeled glucose into the parasite, parasites were isolated from infected erythrocytes by permeablization with saponin (0.05 w/v), followed by centrifugation, aspiration of supernatant and washing of the pellet 3X with saline solution (135 mM NaCl, 2 mM KCl, 25 mM HEPES, 0.2 mM glucose and 1 mM MgCl2; pH 7.1) to remove cellular debris. WU-1 or DMSO vehicle were added to 100 μl parasites (resuspended in saline) 5 min prior to the addition of 100 μl [^14C]2-DOG (0.2- μCi/ml final concentration). 2-DG uptake was stopped after 2 min by layering the entire reaction over 300 μl of an oil mixture (5:4 mix of dibutyl phthalate / dinonyl phthalate) in Eppendorf tubes and centrifuged at 15,850 × g for 2 mins. The ratio of the estimated intracellular concentration of radiolabel relative to the extracellular concentration were calculated as described. Uptake of radiolabeled hexose into HEK293 cells was measured in glucose-free HBSS as described previously. Briefly, cells were plated at 400,000 cells/well overnight at 37°C in 24-well plates pre-treated with PEI. After 30-min incubation at 37°C in glucose-free HBSS in the presence of vehicle or increasing concentrations of compound, 2-DG uptake was measured in glucose-free HBSS for 4 min at 37°C. Cultures were washed in ice-cold 1X PBS and lysed in 0.1% Triton X-100 in 1X PBS. Radiolabeled hexose uptake was determined by liquid scintillation counting (Ultima Gold, Thermo Fisher) and normalized to total protein per well. Uptake data are plotted as percent uptake relative to vehicle-treated cells. Kinetic analyses were performed using the indicated concentrations of substrate and WU-1, with quenching of uptake after 1 min incubation. Incubation times had been previously determined as being in the linear range of time-dependent radiolabeled hexose uptake (2 min for 2-DG uptake into freed parasites; 2 and 4 min for D-Frc and 2-DG uptake HEK cell lines, respectively). Data were fit by least squares nonlinear regression analysis using GraphPad Prism 6.0 software.

[2] = target: T1, PfHT (Plasmodium falciparum, UniProt Q7KWJ5); assay: [3H]-D-fructose uptake by HEK293 cells overexpressing PfHT; format: cell-based; design: expressed in transfected cells; host or cells: HEK293 (HEK293-FLIP, native hGLUT1 knocked down by shRNA)
T1 sequence (Q7KWJ5 1-504): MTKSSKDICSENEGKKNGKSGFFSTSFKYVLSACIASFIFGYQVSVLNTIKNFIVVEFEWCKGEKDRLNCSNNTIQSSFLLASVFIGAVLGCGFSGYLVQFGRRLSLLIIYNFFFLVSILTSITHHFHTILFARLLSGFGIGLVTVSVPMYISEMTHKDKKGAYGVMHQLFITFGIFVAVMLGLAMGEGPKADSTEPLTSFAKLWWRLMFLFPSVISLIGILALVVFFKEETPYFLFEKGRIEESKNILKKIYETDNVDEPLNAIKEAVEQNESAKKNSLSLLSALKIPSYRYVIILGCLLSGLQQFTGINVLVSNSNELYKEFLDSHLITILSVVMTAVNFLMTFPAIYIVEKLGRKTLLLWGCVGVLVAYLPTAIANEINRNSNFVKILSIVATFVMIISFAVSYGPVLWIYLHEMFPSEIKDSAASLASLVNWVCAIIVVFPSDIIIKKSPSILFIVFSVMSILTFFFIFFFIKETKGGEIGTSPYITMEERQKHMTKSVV
Text: Generation of HEK293 cells overexpressing PfHT and human GLUTs 1–4 were described elsewhere. Briefly, HEK293 cells were transfected with pcDNA3.1 FLII12Pglu-7006 (Addgene), containing the fluorescence resonance energy transfer (FRET) glucose sensor (HEK293-FLIP) and PfHT, human GLUT1 (hGLUT1), hGLUT2, hGLUT3, hGLUT4, hGLUT5 or hGLUT8 using Optifect (Life Technologies) according to manufacturer’s specifications. To increase retention of GLUT8 at the plasma membrane, the dileucine sorting signal E^7E^8XXXLL was modified to R^7R^8XXXLL as described in [17]. Stable transfectants were selected for G418 and hygromycin resistance to select for FRET sensor and hexose transporter, respectively. HEK293-FLIP cells were also used to generate cells stably transfected with FLAG-tagged PfHT (FTPfHT). FLAG tag ([…]) followed by a triple glycine linker and a tobacco etch virus (TEV) protease site (ENLYFQS) followed by a triple glycine linker was added to the N-terminus of PfHT via PCR [18] using Phusion Hot Start II High-Fidelity DNA Polymerase (Fisher Scientific). Single clones were selected by comparing their abilities to transport glucose as assayed via FRET and radiolabeled hexose uptake. In all cell lines, except for HEK293 cells overexpressing hGLUT1 and hGLUT5, native hGLUT1 was knocked down using shRNA as described elsewhere. Transcript levels of the individual GLUTs expressed in each cell line are as described in [13, 15] and in S1 Fig.
as §1

Cc1ccc(S(=O)(=O)CCNC(=O)c2c(-c3c(Cl)cccc3Cl)noc2C)cc1 [WU-1, 3-(2,6-dichlorophenyl)-5-methyl-N-[2-(4-methylbenzenesulfonyl)ethyl]-1,2-oxazole-4-carboxamide]
2-DG uptake by freed parasites (normalised to 100), AVE per experiment ([1]; 0.001 µM WU-1): 100.00 | 2-DG uptake by freed parasites (normalised to 100), AVE per experiment ([1]; 8.33 µM WU-1): 54.38 and 56.80 and 54.68 | 2-DG uptake by freed parasites (normalised to 100), AVE per experiment ([1]; 25 µM WU-1): 40.52 and 37.08 and 35.20 | 2-DG uptake by freed parasites (normalised to 100), AVE per experiment ([1]; 75 µM WU-1): 20.23 and 31.42 and 24.43 | 2-DG uptake by freed parasites (normalised to 100), AVE per experiment ([1]; 225 µM WU-1): 17.01 and 18.91 and 19.76 | IC50 ([1]; Expt 1-3, read-out: IC50 for 2-DG uptake by freed parasites, individual experiments): 6.6 µM and 4.5 µM | IC50 ([1]; Plasmodium falciparum, 3D7, Expt 1-3, read-out: IC50 for 2-DG uptake by freed parasites, individual experiments): 7.2 µM | IC50 ([1]; Plasmodium falciparum, 3D7, isolated P. falciparum trophozoites, mean, read-out: IC50 for 2-DG uptake by freed parasites): 6.1 ± 0.8 µM | IC50 ([2]; AVE IC50 (µM), PfHT, D-frc Uptake, average of Expt 1-3): 4.99 µM | remaining activity at 0.001 µM ([2]; HEK293, 2 min, read-out: D-frc Uptake AVE, PfHT, concentration 0.001 µM, Expt 1-3): 101% | remaining activity at 0.63 µM ([2]; HEK293, 2 min, read-out: D-frc Uptake AVE, PfHT, concentration 0.63 µM): 80.7% | remaining activity at 1.25 µM ([2]; HEK293, 2 min, read-out: D-frc Uptake AVE, PfHT, concentration 1.25 µM): 72.3% | remaining activity at 2.5 µM ([2]; HEK293, 2 min, read-out: D-frc Uptake AVE, PfHT, concentration 2.50 µM): 68.5% | remaining activity at 5 µM ([2]; HEK293, 2 min, read-out: D-frc Uptake AVE, PfHT, concentration 5.00 µM): 49.6% | remaining activity at 10 µM ([2]; HEK293, 2 min, read-out: D-frc Uptake AVE, PfHT, concentration 10.00 µM): 37.9% | remaining activity at 20 µM ([2]; HEK293, 2 min, read-out: D-frc Uptake AVE, PfHT, concentration 20.00 µM): 22.3% | remaining activity at 40 µM ([2]; HEK293, 2 min, read-out: D-frc Uptake AVE, PfHT, concentration 40.00 µM): 15.6% | remaining activity at 80 µM ([2]; HEK293, 2 min, read-out: D-frc Uptake AVE, PfHT, concentration 80.00 µM): 10.7% | remaining activity at 225 µM ([2]; HEK293, 2 min, read-out: D-frc Uptake AVE, PfHT, concentration 225.00 µM): 8.85% | remaining activity at 160 µM ([2]; HEK293, 2 min, read-out: D-frc Uptake AVE, PfHT, concentration […]): 7.62% | IC50 ([2]; IC50 (µM), PfHT, D-frc Uptake, single experiments Expt 1-3): 4.57 µM and 6.26 µM and 4.14 µM | IC50 ([2]; IC50, D-fructose (Frc) uptake, PfHT cell line): 5 ± 0.7 µM | Selectivity Index, Frc, PfHT line itself ([2]; reference value): 1.0
